Measured values: ChEMBL document CHEMBL5532681, “Cannabidiol Inhibits Epithelial Ovarian Cancer: Role of Gut Microbiome” (J Nat Prod, 2024)
Calls of active or inactive are those of the source. No cut-off for these calls is given here.

Columns and labels:
[1] = test system: A2780; assay: Antitumor activity against human A2780 cells xenografted in BALB/c female nude mouse assessed as decrease in tumor weight at 10 to 20 mg/kg, ip administered on day 24 and measured every other day for 45 days; format: functional, organism-based; conditions: dose 10-20 mg/kg, time 45.0 day
[2] = test system: A2780; assay: Antiproliferative activity against human A2780 cells assessed as decrease in cell viability incubated for 24 to 72 hrs by CCK-8 assay; format: functional, cell-based; conditions: time 24-72 hrs
[3] = test system: A2780; assay: Antiproliferative activity against human A2780 cells assessed as decrease in cell viability at 3 to 12 uM by CCK-8 assay; format: functional, cell-based; conditions: dose 3-12 µM, TDE = time-dependent effect
[4] = test system: ES-2; assay: Antiproliferative activity against human ES2 cells assessed as decrease in cell viability incubated for 24 to 72 hrs by CCK-8 assay; format: functional, cell-based; conditions: time 24-72 hrs
[5] = test system: ES-2; assay: Antiproliferative activity against human ES2 cells assessed as decrease in cell viability at 3 to 12 uM by CCK-8 assay; format: functional, cell-based; conditions: dose 3-12 µM, TDE = time-dependent effect
[6] = test system: A2780; assay: Antiproliferative activity against human A2780 cells assessed as decrease in cell viability at 3 to 12 uM incubated for 24 hrs by crystal violet staining based assay; format: functional; conditions: dose 3-12 µM
[7] = test system: ES-2; assay: Antiproliferative activity against human ES2 cells assessed as decrease in cell viability at 3 to 12 uM incubated for 24 hrs by crystal violet staining based assay; format: functional; conditions: dose 3-12 µM
[8] = test system: A2780; assay: Antiproliferative activity against human A2780 cells assessed as decrease in cell viability at 12 uM incubated for 24 hrs by crystal violet staining based assay relative to control; format: functional
[9] = test system: ES-2; assay: Antiproliferative activity against human ES2 cells assessed as decrease in cell viability at 12 uM incubated for 24 hrs by crystal violet staining based assay relative to control; format: functional
[10] = test system: A2780; assay: Inhibition of cell migration in human A2780 cells assessed as decrease in migration distance at 3 uM incubated for 24 hrs by wound healing assay relative to control; format: functional; set-up: scale not given: the % may be the effect or the level left
[11] = test system: A2780; assay: Inhibition of cell migration in human A2780 cells assessed as decrease in migration distance at 6 uM incubated for 24 hrs by wound healing assay relative to control; format: functional; set-up: scale not given: the % may be the effect or the level left
[12] = test system: A2780; assay: Inhibition of cell migration in human A2780 cells assessed as decrease in migration distance at 12 uM incubated for 24 hrs by wound healing assay relative to control; format: functional; set-up: scale not given: the % may be the effect or the level left
[13] = test system: ES-2; assay: Inhibition of cell migration in human ES2 cells assessed as decrease in migration distance at 3 uM incubated for 24 hrs by wound healing assay relative to control; format: functional; set-up: scale not given: the % may be the effect or the level left
[14] = test system: ES-2; assay: Inhibition of cell migration in human ES2 cells assessed as decrease in migration distance at 6 uM incubated for 24 hrs by wound healing assay relative to control; format: functional; set-up: scale not given: the % may be the effect or the level left
[15] = test system: ES-2; assay: Inhibition of cell migration in human ES2 cells assessed as decrease in migration distance at 12 uM incubated for 24 hrs by wound healing assay relative to control; format: functional; set-up: scale not given: the % may be the effect or the level left
[16] = test system: A2780; assay: Inhibition of cell invasion in human A2780 cells assessed as decrease in invasion rate at 3 uM incubated for 48 hrs by transwell assay; format: functional; set-up: scale not given: the % may be the effect or the level left
[17] = test system: A2780; assay: Inhibition of cell invasion in human A2780 cells assessed as decrease in invasion rate at 6 uM incubated for 48 hrs by transwell assay; format: functional; set-up: scale not given: the % may be the effect or the level left
[18] = test system: A2780; assay: Inhibition of cell invasion in human A2780 cells assessed as decrease in invasion rate at 12 uM incubated for 48 hrs by transwell assay; format: functional; set-up: scale not given: the % may be the effect or the level left
[19] = test system: ES-2; assay: Inhibition of cell invasion in human ES2 cells assessed as decrease in invasion rate 3 uM incubated for 48 hrs by transwell assay; format: functional; set-up: scale not given: the % may be the effect or the level left
[20] = test system: ES-2; assay: Inhibition of cell invasion in human ES2 cells assessed as decrease in invasion rate at 6 uM incubated for 48 hrs by transwell assay; format: functional; set-up: scale not given: the % may be the effect or the level left
[21] = test system: ES-2; assay: Inhibition of cell invasion in human ES2 cells assessed as decrease in invasion rate at 12 uM incubated for 48 hrs by transwell assay; format: functional; set-up: scale not given: the % may be the effect or the level left
[22] = test system: A2780; assay: Downregulation of AKT expression in human A2780 cells by Westernblot analysis; format: functional, cell-based
[23] = test system: A2780; assay: Downregulation of EGFR expression in human A2780 cells by Westernblot analysis; format: functional, cell-based
[24] = test system: A2780; assay: Downregulation of MMP-2 expression in human A2780 cells by Westernblot analysis; format: functional, cell-based
[25] = test system: A2780; assay: Downregulation of MMP-9 expression in human A2780 cells by Westernblot analysis; format: functional, cell-based
[26] = test system: ES-2; assay: Downregulation of AKT expression in human ES2 cells by Westernblot analysis; format: functional, cell-based
[27] = test system: ES-2; assay: Downregulation of EGFR expression in human ES2 cells by Westernblot analysis; format: functional, cell-based
[28] = test system: ES-2; assay: Downregulation of MMP-2 expression in human ES2 cells by Westernblot analysis; format: functional, cell-based
[29] = test system: ES-2; assay: Downregulation of MMP-9 expression in human ES2 cells by Westernblot analysis; format: functional, cell-based
[30] = Downregulation of EGFR expression in human A2780 cells at 12 uM by Westernblot analysis relative to control; format: functional
[31] = Downregulation of MMP-2 expression in human A2780 cells at 12 uM by Westernblot analysis relative to control; format: functional
[32] = Downregulation of MMP-9 expression in human A2780 cells at 12 uM by Westernblot analysis relative to control; format: functional
[33] = Downregulation of EGFR expression in human ES2 cells at 12 uM by Westernblot analysis relative to control; format: functional, ES-2
[34] = Downregulation of MMP-2 expression in human ES2 cells at 12 uM by Westernblot analysis relative to control; format: functional, ES-2
[35] = Downregulation of MMP-9 expression in human ES2 cells at 12 uM by Westernblot analysis relative to control; format: functional, ES-2
[36] = test system: A2780; assay: Antitumor activity against human A2780 cells xenografted in BALB/c female nude mouse assessed as decrease in body weight at 10 to 20 mg/kg, ip administered on day 24 and measured every other day for 45 days; format: functional, organism-based; conditions: dose 10-20 mg/kg, time 45.0 day
[37] = test system: A2780; assay: Antitumor activity against human A2780 cells xenografted in BALB/c female nude mouse assessed as decrease in tumor growth rate at 10 to 20 mg/kg, ip administered on day 24 and measured every other day for 45 days; format: functional, organism-based; conditions: dose 10-20 mg/kg, time 45.0 day
[38] = test system: A2780; assay: Antitumor activity against human A2780 cells xenografted in BALB/c female nude mouse assessed as decrease in tumor volume at 10 to 20 mg/kg, ip administered on day 24 and measured every other day for 45 days; format: functional, organism-based; conditions: dose 10-20 mg/kg, time 45.0 day
[39] = Toxicity in human A2780 cells xenografted in BALB/c female nude mouse assessed as effect on spleen index at 10 to 20 mg/kg, ip administered on day 24 and measured every other day for 45 days; format: organism-based; conditions: in vivo, 1080 h, dose 10-20 mg/kg, time 45 day
[40] = Toxicity in human A2780 cells xenografted in BALB/c female nude mouse assessed as effect on body weight at 10 to 20 mg/kg, ip administered on day 24 and measured every other day for 45 days; format: organism-based; conditions: in vivo, 1080 h, dose 10-20 mg/kg, time 45 day
[41] = test system: A2780; assay: Antitumor activity against human A2780 cells xenografted in BALB/c female nude mouse assessed as disordered tumor cells at 10 to 20 mg/kg, ip administrated for 28 days by HE staining based analysis; format: functional, organism-based; conditions: dose 10-20 mg/kg, time 28.0 day
[42] = test system: A2780; assay: Antitumor activity against human A2780 cells xenografted in BALB/c female nude mouse assessed as irregular tumor shape at 10 to 20 mg/kg, ip administrated for 28 days by HE staining based analysis; format: functional, organism-based; conditions: dose 10-20 mg/kg, time 28.0 day
[43] = test system: A2780; assay: Antitumor activity against human A2780 cells xenografted in BALB/c female nude mouse assessed as reduction in cells with hyaline cytoplasm at 10 to 20 mg/kg, ip administrated for 28 days by HE staining based analysis; format: functional, organism-based; conditions: dose 10-20 mg/kg, time 28.0 day
[44] = test system: A2780; assay: Antitumor activity against human A2780 cells xenografted in BALB/c female nude mouse assessed as decrease in AKT positive cells at 10 to 20 mg/kg, ip administrated for 28 days by immunohistochemical analysis; format: functional, organism-based; conditions: dose 10-20 mg/kg, time 28.0 day
[45] = test system: A2780; assay: Antitumor activity against human A2780 cells xenografted in BALB/c female nude mouse assessed as reduction in EGFR positive cells at 20 mg/kg, ip administrated for 28 days by immunohistochemical analysis; format: functional, organism-based; conditions: time 28.0 day
[46] = test system: A2780; assay: Anticancer activity against human A2780 cells xenografted in BALB/c female nude mouse assessed as decrease in abundance of firmicutes at 10 to 20 mg/kg, ip administrated for 28 days; format: functional, organism-based; conditions: dose 10-20 mg/kg, time 28.0 day
[47] = test system: A2780; assay: Anticancer activity against human A2780 cells xenografted in BALB/c female nude mouse assessed as increase in abundance of alistipes at 10 to 20 mg/kg, ip administrated for 28 days; format: functional, organism-based; conditions: dose 10-20 mg/kg, time 28.0 day
[48] = test system: A2780; assay: Anticancer activity against human A2780 cells xenografted in BALB/c female nude mouse assessed as increase in intestinal microbial diversity at 10 to 20 mg/kg, ip administrated for 28 days; format: functional, organism-based; conditions: dose 10-20 mg/kg, time 28.0 day

C=C(C)[C@@H]1CCC(C)=C[C@H]1c1c(O)cc(CCCCC)cc1O [CANNABIDIOL]
Activity [1]: Active
Activity [2]: Dose-Dependent Effect
Activity [3]: Tde
Activity [4]: Dose-Dependent Effect
Activity [5]: Tde
Activity [6]: Dose-Dependent Effect
Activity [7]: Dose-Dependent Effect
Activity [8]: 27%
Activity [9]: 24%
Activity [10]: 75%
Activity [11]: 62%
Activity [12]: 52%
Activity [13]: 73%
Activity [14]: 53%
Activity [15]: 26%
Activity [16]: 71%
Activity [17]: 56%
Activity [18]: 61%
Activity [19]: 80%
Activity [20]: 39%
Activity [21]: 32%
Activity [22]: Dose-Dependent Effect
Activity [23]: Dose-Dependent Effect
Activity [24]: Dose-Dependent Effect
Activity [25]: Dose-Dependent Effect
Activity [26]: Dose-Dependent Effect
Activity [27]: Dose-Dependent Effect
Activity [28]: Dose-Dependent Effect
Activity [29]: Dose-Dependent Effect
Activity [30]: 58%
Activity [31]: 77%
Activity [32]: 77%
Activity [33]: 79%
Activity [34]: 77%
Activity [35]: 81%
Activity [36]: Active
Activity [37]: Active
Activity [38]: Active
Activity [39]: Non-Toxic
Activity [40]: Non-Toxic
Activity [41]: Active
Activity [42]: Active
Activity [43]: Active
Activity [44]: Active
Activity [45]: Active
Activity [46]: Active
Activity [47]: Active
Activity [48]: Active
